Laboratory results: ChEMBL document CHEMBL5465560, “Selectivity Literature for EUbOPEN Chemogenomic Library” (2024)

Key:
[1] = biological target: High affinity nerve growth factor receptor (Homo sapiens, UniProt P04629); settings: at 10 µM
[2] = biological target: LIM domain kinase 2 (Homo sapiens) (UniProt P53671); assay: Selectivity interaction (KinomeScan (DiscoverX)) EUB0000229b LIMK2; settings: at 10 µM
[3] = biological target: Proto-oncogene tyrosine-protein kinase Src (Homo sapiens, UniProt P12931); assay: Selectivity interaction (Upstate Kinase Profiler service (Millipore)) EUB0000056c SRC; settings: at 1 µM
Proto-oncogene tyrosine-protein kinase Src, sequence (P12931 2-536 limits assumed): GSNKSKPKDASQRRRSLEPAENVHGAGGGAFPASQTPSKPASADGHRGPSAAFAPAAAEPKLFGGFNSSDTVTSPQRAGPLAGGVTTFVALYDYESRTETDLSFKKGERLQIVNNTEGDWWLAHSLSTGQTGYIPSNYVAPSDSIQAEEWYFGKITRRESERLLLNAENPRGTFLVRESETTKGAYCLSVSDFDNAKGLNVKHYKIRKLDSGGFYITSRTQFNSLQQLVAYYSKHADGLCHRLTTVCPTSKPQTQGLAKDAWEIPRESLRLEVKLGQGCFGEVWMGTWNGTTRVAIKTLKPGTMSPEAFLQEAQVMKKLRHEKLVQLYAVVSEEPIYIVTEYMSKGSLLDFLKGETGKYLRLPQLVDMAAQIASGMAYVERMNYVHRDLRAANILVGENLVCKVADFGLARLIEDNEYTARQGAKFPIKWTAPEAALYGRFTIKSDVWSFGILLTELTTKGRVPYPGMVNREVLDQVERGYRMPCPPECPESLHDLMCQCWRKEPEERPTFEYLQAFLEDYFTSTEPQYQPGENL

[4] = biological target: Activin receptor type-1-like (Homo sapiens) (UniProt P37023); assay: Selectivity interaction (KinomeScan (DiscoverX)) EUB0001079a ACVRL1; settings: at 1 µM
Activin receptor type-1-like (Homo sapiens), sequence (P37023 whole entry): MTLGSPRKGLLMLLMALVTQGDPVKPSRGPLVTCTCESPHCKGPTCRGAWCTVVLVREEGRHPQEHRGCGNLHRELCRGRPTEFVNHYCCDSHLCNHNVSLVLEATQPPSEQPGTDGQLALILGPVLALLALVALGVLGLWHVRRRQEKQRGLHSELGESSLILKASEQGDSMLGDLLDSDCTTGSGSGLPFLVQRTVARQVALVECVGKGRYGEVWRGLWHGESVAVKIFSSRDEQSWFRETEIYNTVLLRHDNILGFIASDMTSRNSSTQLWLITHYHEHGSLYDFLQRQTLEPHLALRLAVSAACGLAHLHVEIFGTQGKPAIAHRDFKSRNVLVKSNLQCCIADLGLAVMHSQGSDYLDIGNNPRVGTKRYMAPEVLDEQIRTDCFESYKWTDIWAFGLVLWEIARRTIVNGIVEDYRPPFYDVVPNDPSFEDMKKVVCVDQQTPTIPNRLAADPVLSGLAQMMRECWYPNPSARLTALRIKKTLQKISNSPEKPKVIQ

[5] = biological target: Bromodomain-containing protein 2 (Homo sapiens) (UniProt P25440); assay: Selectivity interaction (Human bromodomain panel (DSF assay)) EUB0000233b BRD2
Bromodomain-containing protein 2 (Homo sapiens), sequence (P25440 whole entry, looked up): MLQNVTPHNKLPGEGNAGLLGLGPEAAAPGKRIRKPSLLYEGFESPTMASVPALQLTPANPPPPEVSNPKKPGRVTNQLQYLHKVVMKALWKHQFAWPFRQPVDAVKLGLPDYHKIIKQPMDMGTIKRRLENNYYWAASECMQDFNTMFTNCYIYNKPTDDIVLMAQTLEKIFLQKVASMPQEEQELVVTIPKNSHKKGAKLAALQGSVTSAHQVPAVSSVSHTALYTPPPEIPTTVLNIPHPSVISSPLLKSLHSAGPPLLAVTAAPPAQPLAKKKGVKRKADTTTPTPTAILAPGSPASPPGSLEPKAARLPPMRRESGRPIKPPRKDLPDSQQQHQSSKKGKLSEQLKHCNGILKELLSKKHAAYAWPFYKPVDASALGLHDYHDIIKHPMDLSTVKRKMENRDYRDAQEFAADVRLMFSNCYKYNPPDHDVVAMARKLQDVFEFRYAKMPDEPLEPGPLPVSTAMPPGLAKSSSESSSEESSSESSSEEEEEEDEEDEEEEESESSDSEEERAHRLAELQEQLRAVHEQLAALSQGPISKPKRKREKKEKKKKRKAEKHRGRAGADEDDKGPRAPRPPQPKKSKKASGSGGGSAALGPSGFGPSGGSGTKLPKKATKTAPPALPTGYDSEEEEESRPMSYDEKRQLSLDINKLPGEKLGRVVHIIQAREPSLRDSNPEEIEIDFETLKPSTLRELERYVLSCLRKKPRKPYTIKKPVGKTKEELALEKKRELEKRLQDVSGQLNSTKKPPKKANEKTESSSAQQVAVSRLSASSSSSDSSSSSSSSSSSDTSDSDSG

[6] = biological target: Tyrosine-protein kinase Lck (Homo sapiens, UniProt P06239); assay: Selectivity interaction (KinomeScan (DiscoverX)) EUB0000666a LCK; settings: at 10 µM
Tyrosine-protein kinase Lck, sequence (P06239 2-509 limits assumed): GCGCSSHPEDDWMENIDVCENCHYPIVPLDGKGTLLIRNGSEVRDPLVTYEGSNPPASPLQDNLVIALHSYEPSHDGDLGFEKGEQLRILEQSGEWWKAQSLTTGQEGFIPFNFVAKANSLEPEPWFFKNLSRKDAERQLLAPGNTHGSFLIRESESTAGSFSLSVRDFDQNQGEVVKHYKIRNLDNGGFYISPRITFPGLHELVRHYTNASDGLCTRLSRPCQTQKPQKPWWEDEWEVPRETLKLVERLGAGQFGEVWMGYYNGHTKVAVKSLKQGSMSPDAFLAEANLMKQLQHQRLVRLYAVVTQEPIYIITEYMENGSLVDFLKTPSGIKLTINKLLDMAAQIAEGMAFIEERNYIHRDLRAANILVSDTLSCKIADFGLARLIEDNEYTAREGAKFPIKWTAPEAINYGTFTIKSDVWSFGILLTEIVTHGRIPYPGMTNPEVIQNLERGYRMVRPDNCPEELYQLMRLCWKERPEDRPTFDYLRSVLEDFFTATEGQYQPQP

[7] = biological target: T1, Serine/threonine-protein kinase ULK3 (Homo sapiens) (UniProt Q6PHR2); assay: Selectivity interaction (ActivX KiNativ screen (kinase selectivity in THP-1 cell lysates)) EUB0000639a ULK3; type: subcellular; settings: lysate, at 1 µM
T1 sequence (whole entry): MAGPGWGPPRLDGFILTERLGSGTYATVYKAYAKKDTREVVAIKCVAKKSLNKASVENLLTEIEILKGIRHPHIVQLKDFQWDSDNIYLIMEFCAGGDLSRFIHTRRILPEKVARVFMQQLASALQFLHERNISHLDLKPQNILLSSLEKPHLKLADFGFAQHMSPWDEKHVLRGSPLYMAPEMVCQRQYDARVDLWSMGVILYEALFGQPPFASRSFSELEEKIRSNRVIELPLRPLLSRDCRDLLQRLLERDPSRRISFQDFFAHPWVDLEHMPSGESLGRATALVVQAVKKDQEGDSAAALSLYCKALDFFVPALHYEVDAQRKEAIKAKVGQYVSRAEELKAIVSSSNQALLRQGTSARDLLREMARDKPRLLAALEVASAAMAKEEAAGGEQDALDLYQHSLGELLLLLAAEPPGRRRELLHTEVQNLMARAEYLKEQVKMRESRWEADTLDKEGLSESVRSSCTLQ

[8] = biological target: Cyclin-dependent kinase 5 (Homo sapiens, UniProt Q00535); assay: Selectivity interaction (ActivX KiNativ screen (kinase selectivity in THP-1 cell lysates)) EUB0000639a CDK5; type: subcellular; settings: lysate
Cyclin-dependent kinase 5, sequence (Q00535 whole entry, looked up): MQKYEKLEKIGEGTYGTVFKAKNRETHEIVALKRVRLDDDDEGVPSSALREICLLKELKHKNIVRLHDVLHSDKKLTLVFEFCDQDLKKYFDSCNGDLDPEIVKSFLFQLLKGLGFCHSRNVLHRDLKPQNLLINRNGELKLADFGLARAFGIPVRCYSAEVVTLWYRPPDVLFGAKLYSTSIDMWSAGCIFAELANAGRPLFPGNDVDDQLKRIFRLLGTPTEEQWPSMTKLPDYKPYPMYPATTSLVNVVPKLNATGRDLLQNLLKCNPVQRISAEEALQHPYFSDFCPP

[9] = biological target: T2, Serine/threonine-protein kinase 3 (Homo sapiens) (UniProt Q13188); assay: Selectivity interaction (ActivX KiNativ screen (kinase selectivity in THP-1 cell lysates)) EUB0000639a STK3; type: subcellular; settings: lysate, at 5 µM
T2 sequence (whole entry): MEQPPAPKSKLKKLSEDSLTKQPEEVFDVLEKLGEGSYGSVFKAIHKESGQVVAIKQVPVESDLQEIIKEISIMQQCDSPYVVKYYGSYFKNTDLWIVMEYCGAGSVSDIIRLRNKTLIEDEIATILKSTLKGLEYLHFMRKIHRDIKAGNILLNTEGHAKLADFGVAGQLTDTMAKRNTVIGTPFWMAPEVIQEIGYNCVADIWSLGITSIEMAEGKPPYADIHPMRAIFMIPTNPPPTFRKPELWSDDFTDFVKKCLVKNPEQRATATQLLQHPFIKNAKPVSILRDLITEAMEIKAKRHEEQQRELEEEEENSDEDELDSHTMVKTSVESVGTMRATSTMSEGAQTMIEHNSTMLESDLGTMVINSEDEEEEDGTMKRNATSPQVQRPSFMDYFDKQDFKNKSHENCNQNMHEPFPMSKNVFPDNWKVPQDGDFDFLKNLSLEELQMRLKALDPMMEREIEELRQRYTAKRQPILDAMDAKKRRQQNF

[10] = biological target: Serine/threonine-protein kinase 26 (Homo sapiens, UniProt Q9P289); assay: Selectivity interaction (KinomeScan (DiscoverX)) EUB0000595a STK26; settings: at 10 µM
Serine/threonine-protein kinase 26, sequence (Q9P289 2-416 limits assumed): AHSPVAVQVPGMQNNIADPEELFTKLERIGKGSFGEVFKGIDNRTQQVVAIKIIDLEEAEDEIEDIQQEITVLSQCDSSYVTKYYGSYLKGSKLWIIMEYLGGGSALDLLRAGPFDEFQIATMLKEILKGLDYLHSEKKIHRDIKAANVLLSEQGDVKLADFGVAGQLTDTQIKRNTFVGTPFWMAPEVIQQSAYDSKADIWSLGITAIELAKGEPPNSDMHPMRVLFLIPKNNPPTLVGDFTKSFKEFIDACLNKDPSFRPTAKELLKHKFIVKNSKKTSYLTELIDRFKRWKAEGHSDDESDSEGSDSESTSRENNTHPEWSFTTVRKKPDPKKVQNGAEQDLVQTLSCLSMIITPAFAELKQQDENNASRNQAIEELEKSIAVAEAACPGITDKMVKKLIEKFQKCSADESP

[11] = biological target: T3, Mitogen-activated protein kinase kinase kinase 12 (Homo sapiens) (UniProt Q12852); assay: Selectivity interaction (KinomeScan (DiscoverX)) EUB0000045b MAP3K12
T3 sequence (whole entry): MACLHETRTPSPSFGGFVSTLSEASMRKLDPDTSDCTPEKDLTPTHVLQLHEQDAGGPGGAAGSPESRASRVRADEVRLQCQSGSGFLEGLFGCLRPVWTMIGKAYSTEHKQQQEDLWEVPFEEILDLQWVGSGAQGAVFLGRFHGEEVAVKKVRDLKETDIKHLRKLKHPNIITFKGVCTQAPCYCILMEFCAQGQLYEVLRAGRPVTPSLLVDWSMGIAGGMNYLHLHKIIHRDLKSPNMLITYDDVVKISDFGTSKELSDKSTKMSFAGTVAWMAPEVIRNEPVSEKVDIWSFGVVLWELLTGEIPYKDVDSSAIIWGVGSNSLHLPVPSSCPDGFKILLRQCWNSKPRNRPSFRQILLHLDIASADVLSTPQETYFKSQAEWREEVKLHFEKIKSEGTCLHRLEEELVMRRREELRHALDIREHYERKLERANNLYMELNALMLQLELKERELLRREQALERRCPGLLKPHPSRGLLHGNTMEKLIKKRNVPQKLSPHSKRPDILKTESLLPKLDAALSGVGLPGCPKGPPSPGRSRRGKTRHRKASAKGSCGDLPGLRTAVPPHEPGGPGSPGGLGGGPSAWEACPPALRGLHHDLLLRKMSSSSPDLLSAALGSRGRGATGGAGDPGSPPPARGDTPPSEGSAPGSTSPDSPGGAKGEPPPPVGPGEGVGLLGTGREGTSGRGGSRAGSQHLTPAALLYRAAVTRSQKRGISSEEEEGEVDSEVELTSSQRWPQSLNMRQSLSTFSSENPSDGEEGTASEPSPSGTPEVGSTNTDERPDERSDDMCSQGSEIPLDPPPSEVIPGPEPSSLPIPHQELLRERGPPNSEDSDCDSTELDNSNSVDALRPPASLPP

[12] = biological target: Activin receptor type-1-like (Homo sapiens) (UniProt P37023); assay: Selectivity interaction (KinomeScan (DiscoverX)) EUB0000618a ACVRL1; settings: at 10 µM
[13] = biological target: Serine/threonine-protein kinase Nek4 (Homo sapiens) (UniProt P51957); assay: Selectivity interaction (KinomeScan (DiscoverX)) EUB0000618a NEK4; settings: at 10 µM
[14] = biological target: Serine/threonine-protein kinase PAK 3 (Homo sapiens) (UniProt O75914); assay: Selectivity interaction (Ambit KINOMEscan and KiNATiv profiling in Jurkat cells) EUB0000090b PAK3; type: cell-based; settings: at 1 µM
[15] = biological target: Insulin-like growth factor 1 receptor (Homo sapiens, UniProt P08069); assay: Selectivity interaction (KinomeScan (DiscoverX)) EUB0001619a IGF1R; settings: at 1 µM
Insulin-like growth factor 1 receptor, sequence (P08069 31-736 limits assumed): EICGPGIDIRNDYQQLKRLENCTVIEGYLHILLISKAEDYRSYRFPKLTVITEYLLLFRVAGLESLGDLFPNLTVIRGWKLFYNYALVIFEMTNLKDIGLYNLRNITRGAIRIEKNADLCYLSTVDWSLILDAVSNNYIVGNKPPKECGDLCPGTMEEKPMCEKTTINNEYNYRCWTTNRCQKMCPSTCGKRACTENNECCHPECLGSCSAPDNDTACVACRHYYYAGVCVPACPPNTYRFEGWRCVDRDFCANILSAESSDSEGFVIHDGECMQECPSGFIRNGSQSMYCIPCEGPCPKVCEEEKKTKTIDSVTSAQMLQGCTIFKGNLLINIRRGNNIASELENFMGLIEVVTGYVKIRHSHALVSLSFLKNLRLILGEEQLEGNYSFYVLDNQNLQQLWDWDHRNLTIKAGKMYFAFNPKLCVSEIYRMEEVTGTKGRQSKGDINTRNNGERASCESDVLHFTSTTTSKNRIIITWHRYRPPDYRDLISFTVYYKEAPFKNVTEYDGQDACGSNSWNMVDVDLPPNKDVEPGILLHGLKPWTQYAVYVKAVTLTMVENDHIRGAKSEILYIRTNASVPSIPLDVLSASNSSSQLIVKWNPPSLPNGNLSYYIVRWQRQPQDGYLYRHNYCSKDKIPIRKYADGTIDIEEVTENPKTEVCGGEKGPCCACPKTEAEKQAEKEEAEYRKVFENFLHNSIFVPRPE
Insulin-like growth factor 1 receptor, sequence (P08069 741-1367 limits assumed): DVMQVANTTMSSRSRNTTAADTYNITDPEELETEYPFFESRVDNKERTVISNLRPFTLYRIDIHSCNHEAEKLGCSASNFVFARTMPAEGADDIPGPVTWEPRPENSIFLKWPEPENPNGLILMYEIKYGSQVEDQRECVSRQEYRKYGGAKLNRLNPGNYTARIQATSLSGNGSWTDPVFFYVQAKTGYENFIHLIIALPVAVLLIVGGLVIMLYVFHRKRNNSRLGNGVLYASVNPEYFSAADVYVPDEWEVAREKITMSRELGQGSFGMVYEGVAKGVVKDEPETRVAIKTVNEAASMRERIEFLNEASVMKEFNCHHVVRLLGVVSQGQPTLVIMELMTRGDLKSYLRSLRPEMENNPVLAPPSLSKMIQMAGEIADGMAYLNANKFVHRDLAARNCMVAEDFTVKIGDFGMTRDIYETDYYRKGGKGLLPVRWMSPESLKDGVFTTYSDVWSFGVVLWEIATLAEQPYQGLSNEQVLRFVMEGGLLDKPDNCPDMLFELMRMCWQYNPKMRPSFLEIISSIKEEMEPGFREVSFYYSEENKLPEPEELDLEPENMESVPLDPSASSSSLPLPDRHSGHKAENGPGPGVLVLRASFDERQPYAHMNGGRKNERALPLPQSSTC

LIM domain kinase 2 (Homo sapiens), sequence (P53671 whole entry, looked up, the tested form may be a part): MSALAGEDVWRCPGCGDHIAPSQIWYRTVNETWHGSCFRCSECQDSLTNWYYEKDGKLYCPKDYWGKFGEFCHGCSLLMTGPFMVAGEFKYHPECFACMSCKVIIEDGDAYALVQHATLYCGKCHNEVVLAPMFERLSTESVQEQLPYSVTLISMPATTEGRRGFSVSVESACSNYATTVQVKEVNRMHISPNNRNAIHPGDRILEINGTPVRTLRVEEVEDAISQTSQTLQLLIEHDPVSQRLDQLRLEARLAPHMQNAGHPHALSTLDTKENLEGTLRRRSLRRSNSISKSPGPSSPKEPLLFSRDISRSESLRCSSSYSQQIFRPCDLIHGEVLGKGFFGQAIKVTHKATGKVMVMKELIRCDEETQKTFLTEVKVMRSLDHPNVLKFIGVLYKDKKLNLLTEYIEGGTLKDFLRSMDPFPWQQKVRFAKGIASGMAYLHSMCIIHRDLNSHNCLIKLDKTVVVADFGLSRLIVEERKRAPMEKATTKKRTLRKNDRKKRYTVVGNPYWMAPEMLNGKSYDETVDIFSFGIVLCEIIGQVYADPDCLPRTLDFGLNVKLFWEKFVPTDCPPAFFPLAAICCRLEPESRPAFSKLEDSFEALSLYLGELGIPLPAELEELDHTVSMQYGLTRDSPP

CCN(CC)CCCCNc1ncc2cc(-c3cc(OC)cc(OC)c3)c(NC(=O)NC(C)(C)C)nc2n1 was tested, and the % of control [1] was 100%.
Molecule COc1cc(N(C)c2ccnc3ccc(C(F)(F)F)cc23)cc(OC)c1OC has a % binding [2] of 93%.
Cc1ccc(-c2ccc3c(ccc4sc5c(c43)NC[C@@H](C)NC5=O)n2)cn1 was tested, and the % of inhibition [3] was 12%.
Nc1cnc(N2CCc3cc(S(=O)(=O)Nc4c(F)cc(Cl)cc4F)cc(N4CCCC4=O)c32)nc1 [TP-020n] gave a % of control [4] of 86%.
Work on CN(C)CCCOc1ccc(-c2cc(NCCCn3cccn3)nc(S(C)(=O)=O)n2)cc1 yielded a dTM [5] of less than 2 K.
For O=C(NOC[C@H](O)CO)c1ccc(F)c(F)c1Nc1ccc(I)cc1F, the % of control [6] was 88%.
With CC[C@@H]1[C@H](F)C(=O)N[C@@H]1COc1nccc2cc(C(N)=O)c(OC)cc12 [ZIMLOVISERTIB] the % of inhibition [7] was -4.6%, the % of inhibition ([8]; at 0.01 µM) was 3.6% and the % of inhibition ([8]; at 0.04 µM) was 3.9%. It also gave a % of inhibition ([8]; at 0.2 µM) of -0.2%, a % of inhibition ([8]; at 1 µM) of 2.7% and a % of inhibition ([8]; at 5 µM) of -6.9%. For the same molecule, the % of inhibition [9] was -19.6%.
COCC(=O)NC/C=C/c1ccc2ncnc(Nc3ccc(Oc4ccc(C)nc4)c(C)c3)c2c1 [CP-724714] showed a % of control [10] of 90%.
For C=CC(=O)Nc1cc(-n2c(=O)ccc3cnc4ccc(-c5ccc(NS(C)(=O)=O)cc5)cc4c32)ccc1C, the % of control ([11]; at 1 µM) was 70% and the % of control ([11]; at 10 µM) was 59%.
Work on O[C@H]1CC[C@H](Nc2ncc3nc(Nc4c(F)cc(F)cc4F)n([C@H]4CCOC4)c3n2)CC1 yielded a % of control [12] of 72% and a % of control [13] of 100%.
CN(C)C/C=C/C(=O)Nc1ccc(C(=O)N2CCCC(Nc3ncc(Cl)c(-c4c[nH]c5ccccc45)n3)C2)cc1 (stereo not given) showed a % of control [14] of 80%.
N#Cc1cccc(-c2c[nH]c3ncnc(N4CCOCC4)c23)c1 was tested, and the % of control [15] was 87%.
